These results are taken from ChEMBL document CHEMBL1201862, “PubChem BioAssay data set” (2004).

Calls of active or inactive are those of the source.

The target of assay [1] is Lysine-specific demethylase 4A (Homo sapiens, UniProt O75164). Put plainly: JMJD2A histone demethylase inhibitors, dose response, selectivity assay for GASC-1 inhibitor project, biochemical, DELFIA europium, cherry-picked samples (AID 488840).
Assay [2] in a line: HEK293 cell cytotoxicity, dose response, cytotoxicity control, plate reader, cherry-picked samples (AID 743446). The assay is classed as functional, cell-based.
The target in assay [3] is T1, Caspase-9 (Homo sapiens, UniProt P55211).
T1 sequence (P55211 whole entry): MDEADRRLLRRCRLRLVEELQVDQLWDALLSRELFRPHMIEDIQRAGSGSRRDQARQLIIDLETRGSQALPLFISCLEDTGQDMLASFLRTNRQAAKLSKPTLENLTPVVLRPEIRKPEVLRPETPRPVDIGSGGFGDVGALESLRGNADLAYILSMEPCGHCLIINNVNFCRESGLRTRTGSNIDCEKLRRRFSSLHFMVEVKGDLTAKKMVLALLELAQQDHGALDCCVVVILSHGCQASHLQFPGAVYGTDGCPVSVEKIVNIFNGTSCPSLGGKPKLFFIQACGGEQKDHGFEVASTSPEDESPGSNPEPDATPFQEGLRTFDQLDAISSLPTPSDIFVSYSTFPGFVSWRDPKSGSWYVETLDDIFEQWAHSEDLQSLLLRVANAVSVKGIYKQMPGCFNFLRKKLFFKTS
The assay is described as follows: caspase-9 enzyme inhibition, dose response, selectivity assay for caspase-6 inhibitor project, biochemical, fluorescence, plate reader, cherry-picked samples (AID 743293).

In assay [4] the target is Protein disulfide-isomerase A6 (Homo sapiens, UniProt Q15084). Put plainly: inhibitors of ERp5-mediated insulin aggregation, dose response, biochemical, turbidity, absorbance 650 nm, cherry-picked samples (AID 720566).
Assay [5] deals with Lysine-specific demethylase 4C (Homo sapiens, UniProt Q9H3R0). Put plainly: GASC-1 (JMJD2C) histone demethylase inhibitors, dose response, biochemical, DELFIA europium, cherry-picked samples (AID 488835). The assay is classed as functional.
Assay [6] addresses T2, Protein RecA (Mycobacterium tuberculosis, UniProt P9WHJ3).
T2 sequence (P9WHJ3 whole entry): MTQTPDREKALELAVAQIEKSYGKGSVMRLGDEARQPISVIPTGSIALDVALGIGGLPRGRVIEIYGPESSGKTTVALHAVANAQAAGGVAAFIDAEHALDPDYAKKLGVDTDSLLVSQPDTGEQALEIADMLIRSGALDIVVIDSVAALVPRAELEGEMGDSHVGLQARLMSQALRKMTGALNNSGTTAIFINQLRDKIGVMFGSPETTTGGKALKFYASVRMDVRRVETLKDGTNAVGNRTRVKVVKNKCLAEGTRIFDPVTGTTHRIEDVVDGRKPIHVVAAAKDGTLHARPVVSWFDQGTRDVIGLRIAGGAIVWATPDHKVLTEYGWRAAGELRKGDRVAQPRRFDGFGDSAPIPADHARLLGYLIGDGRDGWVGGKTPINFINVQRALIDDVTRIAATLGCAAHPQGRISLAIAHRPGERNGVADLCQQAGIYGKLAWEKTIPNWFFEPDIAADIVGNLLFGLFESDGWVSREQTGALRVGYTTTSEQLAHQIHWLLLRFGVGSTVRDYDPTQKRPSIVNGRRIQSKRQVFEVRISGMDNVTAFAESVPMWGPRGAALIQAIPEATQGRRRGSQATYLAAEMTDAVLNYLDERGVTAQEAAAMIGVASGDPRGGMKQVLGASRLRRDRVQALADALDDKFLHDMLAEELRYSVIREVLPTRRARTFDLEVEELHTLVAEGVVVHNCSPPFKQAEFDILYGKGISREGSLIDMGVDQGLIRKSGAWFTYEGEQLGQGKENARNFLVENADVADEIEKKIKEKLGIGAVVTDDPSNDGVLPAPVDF
Put plainly: RecA Intein Measured in Biochemical System Using Plate Reader - 2047-02_Inhibitor_Dose_DryPowder_Activity. [Related pubchem assays (depositor defined):AID2223]. Further details: species or system Mycobacterium tuberculosis H37Rv.

The nature of assay [7]: cells. The assay is classed as functional, cell-based.
Assay [8] can be described thus: off-target signal loss in HeLa-CEM21 co-culture – HeLa F-luc CTL cells, cherry-picked, counter-screen for HIV-1 Env fusion inhibitor project, dose response (AID 652040).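 Further: potency for signal decrease marking cytotoxic or nonspecific inhibition.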 The assay is classed as functional, cell-based. (A counterscreen serves to expose hits that act by an unwanted route or on another target.)
For assay [9], the system named is BJ. Put plainly: cytotoxicity toward BJ-TERT-LT-ST fibroblasts, dose response, cell-based, RAS-independent, luminescence (AID 1935).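 Further: BJ fibroblasts immortalized with TERT plus LT and ST oncogenes.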 The assay is classed as functional. The following applies: Homo sapiens.
The nature of assay [10]: CEM21 lymphoblast cell cytotoxicity, dose response, cytotoxicity control for viral fusion inhibitor project, CellTiter-Glo luminescence, cherry-picked (AID 652042).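 Further: potency for signal decrease meaning cytotoxicity.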 The format is functional, cell-based. For orientation: In ATP-based viability assays light output follows the ATP content of the culture.

Lysine-specific demethylase 4C, sequence (Q9H3R0 whole entry): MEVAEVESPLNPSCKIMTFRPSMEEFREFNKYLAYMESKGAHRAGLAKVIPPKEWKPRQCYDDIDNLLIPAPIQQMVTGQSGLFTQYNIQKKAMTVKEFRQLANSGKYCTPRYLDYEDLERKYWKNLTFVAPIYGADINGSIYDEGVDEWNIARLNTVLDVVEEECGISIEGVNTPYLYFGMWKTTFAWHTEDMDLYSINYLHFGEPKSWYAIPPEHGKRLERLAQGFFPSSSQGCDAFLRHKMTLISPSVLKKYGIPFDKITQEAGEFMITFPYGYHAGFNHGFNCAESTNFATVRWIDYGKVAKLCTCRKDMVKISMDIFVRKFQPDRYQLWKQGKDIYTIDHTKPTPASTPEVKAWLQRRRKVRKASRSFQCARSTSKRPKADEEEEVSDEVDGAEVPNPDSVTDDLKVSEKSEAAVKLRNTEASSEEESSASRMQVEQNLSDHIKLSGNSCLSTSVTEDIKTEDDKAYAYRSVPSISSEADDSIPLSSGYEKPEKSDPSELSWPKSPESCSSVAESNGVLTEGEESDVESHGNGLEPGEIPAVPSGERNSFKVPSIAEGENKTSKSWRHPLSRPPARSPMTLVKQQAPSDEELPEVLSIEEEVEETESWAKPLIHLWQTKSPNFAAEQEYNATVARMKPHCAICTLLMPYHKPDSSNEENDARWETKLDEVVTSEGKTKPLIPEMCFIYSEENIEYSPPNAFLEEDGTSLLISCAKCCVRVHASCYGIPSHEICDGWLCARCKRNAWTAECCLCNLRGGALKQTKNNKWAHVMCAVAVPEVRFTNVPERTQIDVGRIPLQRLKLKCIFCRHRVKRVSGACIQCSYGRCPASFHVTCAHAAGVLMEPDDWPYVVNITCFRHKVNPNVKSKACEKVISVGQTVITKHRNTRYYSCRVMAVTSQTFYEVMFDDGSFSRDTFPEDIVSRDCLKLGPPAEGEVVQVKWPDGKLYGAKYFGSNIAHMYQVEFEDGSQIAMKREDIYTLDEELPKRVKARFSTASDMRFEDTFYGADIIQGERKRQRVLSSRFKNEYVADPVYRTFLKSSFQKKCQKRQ
Protein disulfide-isomerase A6, sequence (Q15084 whole entry): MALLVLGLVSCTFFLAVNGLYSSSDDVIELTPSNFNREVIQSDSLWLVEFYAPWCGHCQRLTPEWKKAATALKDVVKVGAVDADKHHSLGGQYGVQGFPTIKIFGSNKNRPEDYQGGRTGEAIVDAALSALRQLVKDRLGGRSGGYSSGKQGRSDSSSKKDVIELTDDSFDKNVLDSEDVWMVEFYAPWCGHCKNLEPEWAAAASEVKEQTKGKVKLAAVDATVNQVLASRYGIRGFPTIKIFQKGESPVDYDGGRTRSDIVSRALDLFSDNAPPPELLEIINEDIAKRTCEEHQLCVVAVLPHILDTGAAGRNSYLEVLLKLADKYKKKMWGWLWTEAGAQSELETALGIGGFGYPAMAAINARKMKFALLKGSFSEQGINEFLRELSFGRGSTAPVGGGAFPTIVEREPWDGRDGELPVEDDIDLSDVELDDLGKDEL
Lysine-specific demethylase 4A, sequence (O75164 whole entry): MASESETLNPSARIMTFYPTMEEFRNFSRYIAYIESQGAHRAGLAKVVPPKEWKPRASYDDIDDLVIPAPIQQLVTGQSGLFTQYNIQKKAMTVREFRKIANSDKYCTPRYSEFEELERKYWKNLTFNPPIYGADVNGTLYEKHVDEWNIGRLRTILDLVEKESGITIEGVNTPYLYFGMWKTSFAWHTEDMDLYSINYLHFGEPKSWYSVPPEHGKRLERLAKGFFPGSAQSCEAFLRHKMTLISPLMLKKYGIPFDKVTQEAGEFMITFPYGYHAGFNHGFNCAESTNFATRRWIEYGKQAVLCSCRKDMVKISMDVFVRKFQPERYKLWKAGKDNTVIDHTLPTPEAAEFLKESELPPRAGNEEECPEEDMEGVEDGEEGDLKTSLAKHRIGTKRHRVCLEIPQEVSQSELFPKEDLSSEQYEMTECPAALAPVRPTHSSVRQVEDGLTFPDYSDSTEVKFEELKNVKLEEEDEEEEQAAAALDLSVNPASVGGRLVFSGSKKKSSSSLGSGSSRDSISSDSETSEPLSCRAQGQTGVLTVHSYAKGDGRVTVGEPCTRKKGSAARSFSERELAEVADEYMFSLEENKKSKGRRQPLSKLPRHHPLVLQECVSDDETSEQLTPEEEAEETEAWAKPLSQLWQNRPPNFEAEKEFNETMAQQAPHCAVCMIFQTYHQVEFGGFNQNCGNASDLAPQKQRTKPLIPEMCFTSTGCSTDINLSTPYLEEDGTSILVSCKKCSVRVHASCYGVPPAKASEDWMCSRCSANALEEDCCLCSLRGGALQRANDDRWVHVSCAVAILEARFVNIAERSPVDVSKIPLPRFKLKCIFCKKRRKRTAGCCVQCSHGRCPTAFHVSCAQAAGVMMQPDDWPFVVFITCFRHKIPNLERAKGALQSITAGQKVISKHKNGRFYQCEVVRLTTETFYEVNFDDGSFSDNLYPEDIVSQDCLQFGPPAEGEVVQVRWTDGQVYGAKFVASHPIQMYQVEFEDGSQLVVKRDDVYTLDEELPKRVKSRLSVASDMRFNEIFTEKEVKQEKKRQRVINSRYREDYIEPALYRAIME

For orientation: AC50 means the midpoint of the concentration-response curve, whichever way the signal moves. `Cn1nc(-c2ccccn2)nc2c(=O)n(C)c(=O)nc1-2`: the AC50 in [1] was 5100 nM (active); in assay [2], 21200 nM (active); in assay [3], 317 nM (active); in [4] it was 1490 nM (active); in [5], 873 nM (active); in assay [6], 47 nM (active).
The EC50 is the concentration at which the effect is half-maximal. On to `CCC(=O)NC(c1ccc(OC)cc1)c1cc(Cl)c2cccnc2c1O` (stereo not given), for which the EC50 in assay [7] is 19000 nM (active).
Regarding `CCCCCCCCCCn1c2c(c(=N)c3c1CCC3)CCC2`, the AC50 is 424 nM (active) in assay [8] and 3400 nM (active) in assay [10]. Besides, the EC50 in [9] was 5730 nM (inconclusive).
